In the test the test system is ogt mRNA. Briefly: ogt mRNA expression in HepG2 cells cultured with glucose, MGO and other sugars/aldehydes. Format: cell-based. To be noted: MGO, 24 hours. As for the experimental part: The HepG2 cells were cultured in a cell culture medium containing glucose, fructose, methylglyoxal (MGO), glyoxal (GO), glyceraldehyde 3-phosphate (G3P), glyceraldehyde, and glycolaldehyde for 24 hours, respectively, and the expression level of ogt mRNA was measured and shown in FIG. 5.

With `CC(=O)C=O` [MGO, methylglyoxal], the “ogt mRNA expression compared to the control group” value is on record as “increased nearly twice”.

For the origin of these results see patent publication US20240024402A1, “COMPOSITION FOR IMPROVING INSULIN SENSITIVITY, CONTAINING GENTIANA TRIFLORAL PALLAS EXTRACT” (MTHERA PHARMA CO., LTD., priority 2020, published 2024).
